Assay results: patent US20160271157A1, “BETA-CATENIN” (UCL BUSINESS PLC, priority 2013, published 2016)
Entries after “also recorded” stand apart in the source; their conditions may differ. Like-named read-outs stand apart in the source and are kept apart here.

What was measured:
[1] = test system: Wnt induced calcium release; experiment: Wnt induced [Ca2+]i release after preincubation with thapsigargin or membrane potential regulating compounds; type: cell-based
Method: The imaging protocol was developed in the inventor's laboratory and has been described in detail, elsewhere (Wang at al., (2010) PLoS ONE 5, e10456). Briefly, 100000-200000 PC3, MCF7, 253J or Cos 7 cells were plated on 35 mm FluoroDish (WPI) and grown for 48 h; calcium indicators Fluo-4 (Invitrogen) and FuraRed (Invitrogen) at 1 ng/ml were added to FluoroDish containing only 1 ml of culture medium and incubated for 15-20 min at 37° C. The culture medium was removed and washed (×2) and replaced with 1 ml PBS. Live cell calcium Imaging was performed on an Olympus FluoView FV 1000 confocal microscope (Olympus KeyMed) equipped with a 20× dry objective (numerical aperture=0.75). Calcium indicators were excited with an argon laser line (488 nm) and emissions recorded in the green channel (500-560 nm) for Fluo-4 and red channel (600-700 nm) for FuraRed after addition of vehicle control (PBS) or Wnt X (30-600 ng/ml). Images were acquired every 1.1 or 2.2 seconds for up to 600-800s; image and data acquisition was performed using FluoView 1000 software (Olympus, UK). Fluorescent intensity was measured and data exported as a tab delimited file for further analysis using a spreadsheet. All imaging experiments were performed in duplicate; intracellular calcium at 100 ng/ml was measured in at least 3-12 different passages (passage numbers 25 to 37) of cell line for each Wnt ligand. Wnt 11 was tested in at least 5 different passages at 3 different concentrations. […]
To measure the effect of changes in membrane potential on [Ca^2+]i release using the protocol described above, in some experiments, external solution (PBS) was substituted with varying concentrations of KCl. In other experiments chemical inhibitors of K^+ channels such as TEA, CsCl or tolbutamide (Sigma-Aldrich) were added to the cells grown on FluoroDish, at 37° C., at least 5 min prior to addition of Wnt ligands.
After image acquisition, regions of interest (ROI) were drawn over individual PC3 cells (up to 25) in a single frame and calcium intensity measurements were made using FluoView 1000 software (Olympus, UK). The measurements were exported as a tab delimited file into a spreadsheet for further analysis and Fluo4/Fura Red ratios were calculated. The waveform, a product of the ratio of Fluo4 and FuraRed over the period of measurement was used to measure the kinetics of the activation of [Ca^2+]i release in PC3 cells, in response to different Wnt ligands. The time constants (rise, dwell and fall times) were calculated by first fitting the Fluo4/FuraRed ratio to a single Gaussian function (Origin Lab Corp., MA); a lower (10%) and upper (90%) amplitude thresholding method was then used to calculate the time constants (s). Statistical significance was calculated using Mann Whitney U test.

[2] = test system: β-catenin translocation to the nucleus; experiment: β-catenin immunocytochemistry and nuclear co-localization analysis, PC3; type: cell-based; conditions: PC3 cells, K+ channel inhibitors 1-15 mM, Wnt5A and 9B
Method: Immunostaining was performed in two different laboratories, independently with the experimenter blind to the identity of the treatment. Either cells used in FluoroDish, post [Ca^2+]i experiments using dyes (see above) or grown in 8 well chamber glass slides (Lab Tek II, Nunc) were used. For Wnt ligand treatment, the culture medium replaced with PBS (without calcium) at 37° C. The experiments were replicated for Wnt ligand or vehicle control as described for [Ca^2+]i measurements. Briefly, Wnt ligands were added and chamber slides incubated at 37° C. for up to 20 min. Chamber wells were washed 3× with 0.5 ml PBS and cells were fixed with 0.5 ml 4% formalin for 30 min at 4° C. Cells were washed 3× with ice cold PBS and stored in 0.5 ml PBS at 4° C. for immunostaining. In some experiments PC3 cells were treated with thaspsigargin as described above.
For immunostaining cells were washed twice for 5 minutes in TBST (20 mM Tris pH 7.4, 0.9% NaCl, 0.1% Tween 20, Sigma). Cells were then incubated in 20% normal goat serum (NGS)/TBST for 30 min at room temperature, the chambers were drained and cells were incubated with mouse anti-β-catenin (ab22656, Abcam, UK) at 1:500 dilution in NGS/TBST overnight at 4° C. Following two further 5 min washes in TBST sections were incubated in goat anti-mouse peroxidase fab (Abcam, UK) at 1:500 dilution for 30 min at room temperature. Following a further two 5 min washes in TBST cells were incubated with tyramide Cy3 (Perkin Elmer) for 10 min at room temperature. Sections were washed twice for 5 min in TBST before nuclear counterstaining with DAPI. After a final two 5 min washes, the chambers were removed and cover slip placed on slides using Permafluor (Thermo Shandon).
Fluorescence immunocytochemical staining for β-catenin expression in cell lines was imaged using Olympus Fluoview 1000 Confocal Microscope (Olympus KeyMed) mounted on an Olympus IX81 inverted microscope using a 20×0.7 NA or 40×1.0 NA dry objective with a zoom of ×3.4′,6-diamidino-2-phenylindole (DAPI, nuclear counterstain) was excited at 405 nm with an emission of 415-500 nm; Cy3 (β-catenin label) signal was excited at 561 nm with an emission spectrum between 570-670 nm. […] Z-stacks of at least 3 fields per sample were imaged and saved in Olympus FV (OIF or OIB) file format.
Nuclear co-localization of β-catenin was calculated by importing FV files for untreated, control or treated cells, into colocalization plugin of Fiji software (http://fiji.sc/Fiji) for Cy3 (β-catenin) and DAPI (nuclear) signals. Pearson co-relation of colocalization were tabulated for 25-90 cells (from 2-5 different passages of cells) using ROI analysis. Statistical significance between untreated and treated cells was calculated using Mann Whitney U test.

[3] = test system: PC3 prostate cancer cell line; experiment: Cell proliferation assay, live imaging (Incucyte), PC3; type: cell-based
Method: Growth curve was monitored at 37° C. in a CO2 incubator by using time lapse imaging with Incucyte (Essen Biosciences) for up to 150 h after plating the cells (t=o) at a density of 25-100 k cells per well in a 6 well plate (Nunc). MPRCs were added at the stated concentrations 24 h after cell plating;
A live imaging system (Incucyte, EssenBiosciences) was used to measure the effect of K^+ channel inhibitors on the rate of cell proliferation. PC3 cells were plated on 6 well plates (Nunc) in 3 ml culture medium (Wang et al (2010) PLoS ONE 5, e10456); K^+ channel inhibitors were added to the wells at 0-15 mM. The plates were placed in Incucyte in a standard cell culture incubator at 37° C. and CO2. Each well was imaged at an interval of up to 4 h and rate of cell proliferation was calculated from these images using Incucyte software.

[4] = test system: MCF7 breast cancer cell line; experiment: Cell growth, time lapse imaging (Incucyte), MCF7; type: cell-based, human; conditions: MCF7 cells, nicorandil shown as an example
Method: Growth curve was monitored at 37° C. in a CO2 incubator by using time lapse imaging with Incucyte (Essen Biosciences) for up to 150 h after plating the cells (t=o) at a density of 25-100 k cells per well in a 6 well plate (Nunc). MPRCs were added at the stated concentrations 24 h after cell plating.

[5] = preincubation 5 min, Wnt 9B 0.1 μg/ml as example, CsCl 5 mM, CdCl2 1 mM, TEA 10 mM, Amiodarone 75 μM, Tolbutamide 1 mM, Isradipine 100 μM, Nifedipine 1 mM, Minoxidil 25 μM, Atenolol 37.5 μM, Propanolol 50 μM, Furosemide 150 μM
[6] = PC3 cells, inhibitors at 0-15 mM

Row | Structure (SMILES) | Wnt ligand induced calcium release after preincubation with MPRC (FIG. 16) [1, 5] | Wnt mediated β-catenin stabilization and translocation to the nucleus (FIG. 11) [2] | other results
1 | CCCCc1oc2ccccc2c1C(=O)c1cc(I)c(OCCN(CC)CC)c(I)c1 [Amiodarone] | inhibited |  | 
2 | CC(C)NCC(O)COc1ccc(CC(N)=O)cc1 (stereo not shown) [Atenolol] | inhibited |  | 
3 | [Cl][Cd][Cl] [CdCl2] | inhibited |  | 
4 | [Cl-].[Cs+] [CsCl] | inhibited | reduced | rate of cell proliferation (confluence of cell growth, FIG. 12) [3, 6]: inhibit proliferation
5 | COC(=O)C1=C(C)NC(C)=C(C(=O)OC(C)C)C1c1cccc2nonc12 (stereo not shown) [Isradipine] | inhibited |  | 
6 | O=C(NCCO[N+](=O)[O-])c1cccnc1 [Nicorandil] |  |  | cell proliferation (FIG. 22 D) [4]: do not inhibit; Wnt signaling measured using intracellular calcium release (FIG. 22 A and B) [1]: do not inhibit; cell proliferation (FIG. 22 C) ([3]; PC3 cells, Incucyte, nicorandil shown as an example): do not inhibit
7 | CC(C)NCC(O)COc1cccc2ccccc12 (stereo not shown) [Propanolol] | inhibited |  | 
8 | CC[N+](CC)(CC)CC [TEA, tetraethylammonium] |  | reduced; also recorded: biggest reduction | Wnt induced [Ca2+]i release after pre-incubation with K+ channel blocker (FIG. 11) [1]: reduced; also recorded: abolished; Wnt ligand induced calcium release after preincubation with MPRC (FIG. 16) [1]: inhibited; rate of cell proliferation (confluence of cell growth, FIG. 12) [3]: inhibit proliferation
9 | CCCCNC(=O)NS(=O)(=O)c1ccc(C)cc1 [Tolbutamide] | inhibited | reduced; also recorded: inhibition | rate of cell proliferation (confluence of cell growth, FIG. 12) [3, 6]: inhibit proliferation; rate of cell proliferation (confluence of cell growth, FIG. 12) ([3]; PC3 cells, inhibitors at 0-15 mM, listed as tolbutamide): inhibition
